#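 96-well plates; 48 h exposure; 5 concentrations. Endpoints by linear interpolation between flanking doses. Not reached: highest tested concentration assigned. GI50: concentration for 50% inhibition of growth. TGI: total growth inhibition.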
# Key:
# Experiment in all cases: NCI tumour cell line growth inhibition, 48 h
# DU-145 prostate = test system: DU-145 prostate
# LOX IMVI melanoma = test system: LOX IMVI melanoma
# KM12 colon = test system: KM12 colon
# HOP-92 NSCLC = test system: HOP-92 NSCLC
# ACHN renal = test system: ACHN renal
# A549 NSCLC = test system: A549 NSCLC
# 786-0 renal = test system: 786-0 renal
# UACC-257 melanoma = test system: UACC-257 melanoma
# OVCAR-5 ovarian = test system: OVCAR-5 ovarian
# SK-MEL-5 melanoma = test system: SK-MEL-5 melanoma
# NCI-H226 lung = test system: NCI-H226 lung
# U251 CNS = test system: U251 CNS
# MCF7 breast = test system: MCF7 breast
# NCI-H23 lung = test system: NCI-H23 lung
# NCI-H522 lung = test system: NCI-H522 lung
# HCT-116 colon = test system: HCT-116 colon
# T-47D breast = test system: T-47D breast
# HOP-62 NSCLC = test system: HOP-62 NSCLC
# PC-3 prostate = test system: PC-3 prostate
# CAKI-1 renal = test system: CAKI-1 renal
# A498 renal = test system: A498 renal
# TK-10 renal = test system: TK-10 renal
# OVCAR-8 ovarian = test system: OVCAR-8 ovarian
# HS 578T breast = test system: HS 578T breast
# CCRF-CEM leukemia = test system: CCRF-CEM leukemia
# OVCAR-4 ovarian = test system: OVCAR-4 ovarian
# SNB-19 CNS = test system: SNB-19 CNS
# BT-549 breast = test system: BT-549 breast
# SNB-75 CNS = test system: SNB-75 CNS
# SK-MEL-2 melanoma = test system: SK-MEL-2 melanoma
# SN12C renal = test system: SN12C renal
# SW-620 colon = test system: SW-620 colon
# COLO 205 colon = test system: COLO 205 colon
# SF-295 CNS = test system: SF-295 CNS
# SF-539 CNS = test system: SF-539 CNS
# K-562 leukemia = test system: K-562 leukemia
# EKVX NSCLC = test system: EKVX NSCLC
# IGROV1 ovarian = test system: IGROV1 ovarian
# MDA-MB-231 breast = test system: MDA-MB-231 breast
# SK-OV-3 ovarian = test system: SK-OV-3 ovarian
# SF-268 CNS = test system: SF-268 CNS
# SK-MEL-28 melanoma = test system: SK-MEL-28 melanoma
# HL-60(TB) leukemia = test system: HL-60(TB) leukemia
# RXF 393 renal = test system: RXF 393 renal
# OVCAR-3 ovarian = test system: OVCAR-3 ovarian
# HCT-15 colon = test system: HCT-15 colon
# MALME-3M melanoma = test system: MALME-3M melanoma
# MDA-MB-435 = test system: MDA-MB-435
# M14 melanoma = test system: M14 melanoma
# NCI-H460 lung = test system: NCI-H460 lung
# UO-31 renal = test system: UO-31 renal
# HT29 colon = test system: HT29 colon
# RPMI-8226 leukemia = test system: RPMI-8226 leukemia
# HCC-2998 colon = test system: HCC-2998 colon
# NCI/ADR-RES ovarian = test system: NCI/ADR-RES ovarian
# UACC-62 melanoma = test system: UACC-62 melanoma
# MOLT-4 leukemia = test system: MOLT-4 leukemia
# SR leukemia = test system: SR leukemia
smiles,measurement,setting,value
O=C(N/N=C/c1ccccc1Cl)c1ccccc1Nc1ccnc(C(F)(F)F)c1,GI50,DU-145 prostate,2.5 µM
same,TGI,DU-145 prostate,> 26.5 µM
same,GI50,LOX IMVI melanoma,1.33 µM
same,TGI,LOX IMVI melanoma,5.21 µM
same,GI50,KM12 colon,1.99 µM
same,TGI,KM12 colon,6.66 µM
same,GI50,HOP-92 NSCLC,1.69 µM
same,TGI,HOP-92 NSCLC,6.17 µM
same,GI50,ACHN renal,1.16 µM
same,TGI,ACHN renal,4.72 µM
same,GI50,A549 NSCLC,3.01 µM
same,TGI,A549 NSCLC,8.91 µM
same,GI50,786-0 renal,0.616 µM
same,TGI,786-0 renal,3.53 µM
same,GI50,UACC-257 melanoma,2.61 µM
same,TGI,UACC-257 melanoma,5.58 µM
same,GI50,OVCAR-5 ovarian,2.75 µM
same,TGI,OVCAR-5 ovarian,17.3 µM
same,GI50,SK-MEL-5 melanoma,0.627 µM
same,TGI,SK-MEL-5 melanoma,2.71 µM
same,GI50,NCI-H226 lung,0.811 µM
same,TGI,NCI-H226 lung,3.52 µM
same,GI50,U251 CNS,1.15 µM
same,TGI,U251 CNS,6.18 µM
same,GI50,MCF7 breast,0.706 µM
same,TGI,MCF7 breast,4.52 µM
same,GI50,NCI-H23 lung,1.82 µM
same,TGI,NCI-H23 lung,8.18 µM
same,GI50,NCI-H522 lung,1.98 µM
same,TGI,NCI-H522 lung,6.74 µM
same,GI50,HCT-116 colon,0.637 µM
same,TGI,HCT-116 colon,3.27 µM
same,GI50,T-47D breast,1.33 µM
same,TGI,T-47D breast,6.41 µM
same,GI50,HOP-62 NSCLC,1.31 µM
same,TGI,HOP-62 NSCLC,8.18 µM
same,GI50,PC-3 prostate,1.83 µM
same,TGI,PC-3 prostate,9.6 µM
same,GI50,CAKI-1 renal,0.389 µM
same,TGI,CAKI-1 renal,2.72 µM
same,GI50,A498 renal,1.76 µM
same,TGI,A498 renal,5.99 µM
same,GI50,TK-10 renal,0.673 µM
same,TGI,TK-10 renal,3.87 µM
same,GI50,OVCAR-8 ovarian,2.29 µM
same,TGI,OVCAR-8 ovarian,8.08 µM
same,GI50,HS 578T breast,1.82 µM
same,TGI,HS 578T breast,7.23 µM
same,GI50,CCRF-CEM leukemia,0.32 µM
same,TGI,CCRF-CEM leukemia,1.76 µM
same,GI50,OVCAR-4 ovarian,1.32 µM
same,TGI,OVCAR-4 ovarian,> 100 µM
same,GI50,SNB-19 CNS,2.4 µM
same,TGI,SNB-19 CNS,> 61.2 µM
same,GI50,BT-549 breast,1.77 µM
same,TGI,BT-549 breast,7.13 µM
same,GI50,SNB-75 CNS,2.41 µM
same,TGI,SNB-75 CNS,26.7 µM
same,GI50,SK-MEL-2 melanoma,1.79 µM
same,TGI,SK-MEL-2 melanoma,5.02 µM
same,GI50,SN12C renal,1.27 µM
same,TGI,SN12C renal,12.7 µM
same,GI50,SW-620 colon,1.53 µM
same,TGI,SW-620 colon,14.5 µM
same,GI50,COLO 205 colon,1.55 µM
same,TGI,COLO 205 colon,3.25 µM
same,GI50,SF-295 CNS,0.354 µM
same,TGI,SF-295 CNS,1.33 µM
same,GI50,SF-539 CNS,1.6 µM
same,TGI,SF-539 CNS,3.7 µM
same,GI50,K-562 leukemia,2.16 µM
same,GI50,EKVX NSCLC,1.65 µM
same,TGI,EKVX NSCLC,5.94 µM
same,GI50,IGROV1 ovarian,1.87 µM
same,TGI,IGROV1 ovarian,10.3 µM
same,GI50,MDA-MB-231 breast,1.93 µM
same,TGI,MDA-MB-231 breast,6.94 µM
same,GI50,SK-OV-3 ovarian,1.43 µM
same,TGI,SK-OV-3 ovarian,5.31 µM
same,GI50,SF-268 CNS,1.8 µM
same,TGI,SF-268 CNS,10.5 µM
same,GI50,SK-MEL-28 melanoma,2.39 µM
same,TGI,SK-MEL-28 melanoma,27.6 µM
same,GI50,HL-60(TB) leukemia,1.71 µM
same,GI50,RXF 393 renal,0.174 µM
same,TGI,RXF 393 renal,1.1 µM
same,GI50,OVCAR-3 ovarian,0.832 µM
same,TGI,OVCAR-3 ovarian,3.68 µM
same,GI50,HCT-15 colon,0.43 µM
same,TGI,HCT-15 colon,3.95 µM
same,GI50,MALME-3M melanoma,1.55 µM
same,TGI,MALME-3M melanoma,4.94 µM
same,GI50,MDA-MB-435,1.71 µM
same,TGI,MDA-MB-435,6.81 µM
same,GI50,M14 melanoma,1.63 µM
same,TGI,M14 melanoma,7.19 µM
same,GI50,NCI-H460 lung,0.768 µM
same,TGI,NCI-H460 lung,2.38 µM
same,GI50,UO-31 renal,1.92 µM
same,TGI,UO-31 renal,6.49 µM
same,GI50,HT29 colon,3.56 µM
same,TGI,HT29 colon,> 100 µM
same,GI50,RPMI-8226 leukemia,0.47 µM
same,TGI,RPMI-8226 leukemia,2.74 µM
same,GI50,HCC-2998 colon,1.74 µM
same,TGI,HCC-2998 colon,7.24 µM
same,GI50,NCI/ADR-RES ovarian,2.16 µM
same,TGI,NCI/ADR-RES ovarian,9.32 µM
same,GI50,UACC-62 melanoma,0.976 µM
same,TGI,UACC-62 melanoma,3.72 µM
O=C(C[n+]1ccccc1)N=N/C(C(=O)Nc1c(Cl)c(O)c2ccccc2c1O)=C1/C(=O)Oc2cc(O)ccc2C1=O,TGI,DU-145 prostate,12.4 µM
same,TGI,LOX IMVI melanoma,> 100 µM
same,TGI,KM12 colon,> 100 µM
same,TGI,HOP-92 NSCLC,48.8 µM
same,TGI,ACHN renal,19.2 µM
same,TGI,A549 NSCLC,11 µM
same,TGI,786-0 renal,> 100 µM
same,TGI,UACC-257 melanoma,12.1 µM
same,TGI,OVCAR-5 ovarian,25.5 µM
same,TGI,SK-MEL-5 melanoma,2.26 µM
same,TGI,NCI-H226 lung,25.8 µM
same,TGI,U251 CNS,45.9 µM
same,TGI,MCF7 breast,15.5 µM
same,TGI,NCI-H23 lung,17.3 µM
same,TGI,NCI-H522 lung,7.3 µM
same,TGI,HCT-116 colon,12.1 µM
same,TGI,MOLT-4 leukemia,> 100 µM
same,TGI,T-47D breast,32.1 µM
same,TGI,HOP-62 NSCLC,22.4 µM
same,TGI,PC-3 prostate,33 µM
same,TGI,CAKI-1 renal,18.1 µM
same,TGI,A498 renal,57.5 µM
same,TGI,TK-10 renal,> 100 µM
same,TGI,OVCAR-8 ovarian,35.3 µM
same,TGI,CCRF-CEM leukemia,> 100 µM
same,TGI,OVCAR-4 ovarian,8.84 µM
same,TGI,BT-549 breast,18.3 µM
same,TGI,SNB-75 CNS,39.4 µM
same,TGI,SK-MEL-2 melanoma,8.1 µM
same,TGI,SR leukemia,53.6 µM
same,TGI,SN12C renal,15.1 µM
same,TGI,SW-620 colon,20.6 µM
same,TGI,COLO 205 colon,10.4 µM
same,TGI,SF-295 CNS,11.8 µM
same,TGI,SF-539 CNS,16 µM
same,TGI,K-562 leukemia,> 100 µM
same,TGI,EKVX NSCLC,29.3 µM
same,TGI,IGROV1 ovarian,14.7 µM
same,TGI,MDA-MB-231 breast,61.4 µM
same,TGI,SK-OV-3 ovarian,27.9 µM
same,TGI,SF-268 CNS,> 100 µM
same,TGI,HL-60(TB) leukemia,> 100 µM
same,TGI,RXF 393 renal,21.7 µM
same,TGI,OVCAR-3 ovarian,13.2 µM
same,TGI,HCT-15 colon,7.09 µM
same,TGI,M14 melanoma,14.7 µM
same,TGI,NCI-H460 lung,8.36 µM
same,TGI,UO-31 renal,26.3 µM
same,TGI,HT29 colon,15.3 µM
same,TGI,RPMI-8226 leukemia,54.6 µM
same,TGI,HCC-2998 colon,12.8 µM
same,TGI,NCI/ADR-RES ovarian,85.1 µM
same,TGI,UACC-62 melanoma,4.14 µM
